In patent publication US20240383852A1, “ANTI-VIRAL COMPOUNDS” (INFEX Therapeutics Limited, priority 2021, published 2024):
Structures can show the parent of a compound that is named as a salt.

What follows are compounds tested against T1, SARS-CoV-2 PLpro (Severe acute respiratory syndrome coronavirus 2, UniProt P0DTD1) (assay: biochemical). Conditions: 60 nM papain-like protease, 50 μM Z-RLRGG-AMC, pH 7.5, 37° C.; read-out: SARS-CoV-2 PLpro IC50.
T1 construct: containing 60 nM papain-like protease

Structure (SMILES) | IC50 [µM]
C[C@@H](NC(=O)c1ccnc(N2CCN(CCO)CC2)n1)c1cccc2ccccc12 [Example 317, 2-[4-(2-Hydroxyethyl)piperazin-1-yl]-N-[(1R)-1-(1-naphthyl)ethyl]pyrimidine-4-carboxamide hydrochloride salt] | > 100
C[C@@H](NC(=O)c1cc(N2CCN(C)CC2)ccn1)c1cccc2ccccc12 [Example 14, 4-(4-Methylpiperazin-1-yl)-N-[(1R)-1-(1-naphthyl)ethyl]pyridine-2-carboxamide] | > 100
C[C@@H](NC(=O)c1cc(-c2ccccc2)ccn1)c1cccc2ccccc12 [Example 3, N-[(1R)-1-(1-Naphthyl)ethyl]-4-phenyl-pyridine-2-carboxamide] | > 100
Cc1ccc(N2CCN(C)CC2)cc1C(=O)N[C@H](C)c1cc(OC(C)C)cc(-c2cnn(C)c2)c1 [Example 279, N-[(1R)-1-[3-Isopropoxy-5-(1-methylpyrazol-4-yl)phenyl]ethyl]-2-methyl-5-(4-methylpiperazin-1-yl)benzamide] | < 2
C[C@@H](NC(=O)c1cc(N2CCN(CC(F)(F)F)CC2)ccc1Cl)c1cccc2ccccc12 [Example 131, 2-Chloro-N-[(1R)-1-(1-naphthyl)ethyl]-5-[4-(2,2,2-trifluoroethyl)piperazin-1-yl]benzamide] | > 100
Cc1ccc(N2CCN(C)CC2)cc1C(=O)N[C@H](C)c1cccc(C(=O)NCCO)c1 [Example 313, N-[(1R)-1-[3-(2-Hydroxyethylcarbamoyl)phenyl]ethyl]-2-methyl-5-(4-methylpiperazin-1-yl)benzamide] | < 20
COc1cc([C@@H](C)NC(=O)c2cc(N3CCN(C)CC3)ccc2C)ccc1O [Example 305, N-[(1R)-1-(4-Hydroxy-3-methoxy-phenyl)ethyl]-2-methyl-5-(4-methylpiperazin-1-yl)benzamide] | < 5
Cc1ccc(-c2cccc(S(=O)(=O)N3CCNCC3)c2)cc1C(=O)N[C@H](C)c1cccc2ccccc12 [Example 152, 2-Methyl-N-[(1R)-1-(1-naphthyl)ethyl]-5-(3-piperazin-1-ylsulfonylphenyl)benzamide] | < 100
C[C@@H](NC(=O)c1ccnc(N2CCN(C)CC2)n1)c1cccc2ccccc12 [Example 316, 2-(4-Methylpiperazin-1-yl)-N-[(1R)-1-(1-naphthyl)ethyl]pyrimidine-4-carboxamide Hydrochloride Salt] | < 100
Cc1ccc(N2CCN(C)CC2)cc1C(=O)N[C@H](C)c1cccc(-c2cccc(C(=O)O)c2)c1 [Example 83, 3-[3-[(1R)-1-[[2-Methyl-5-(4-methylpiperazin-1-yl)benzoyl]amino]ethyl]phenyl]benzoic Acid] | < 5
Cc1ccc(N2CCN(C)CC2)cc1C(=O)N[C@H](C)c1cccc(CCC(=O)O)c1 [Example 82, 3-[3-[(1R)-1-[[2-Methyl-5-(4-methylpiperazin-1-yl)benzoyl]amino]ethyl]phenyl] propanoic Acid] | < 100
CCOc1cc(-c2cnn(C)c2)cc([C@@H](C)NC(=O)c2cc(N3CCN(C)CC3)ccc2C)c1 [Example 278, N-[(1R)-1-[3-Ethoxy-5-(1-methylpyrazol-4-yl)phenyl]ethyl]-2-methyl-5-(4-methylpiperazin-1-yl)benzamide] | < 2
C[C@@H](NC(=O)c1cc(-c2ccncc2)cn1C)c1cccc2ccccc12 [Example 148, 1-Methyl-N-[(1R)-1-(1-naphthyl)ethyl]-4-(4-pyridyl)pyrrole-2-carboxamide] | > 100
Cc1ccc(-c2ccncc2)cc1C(=O)N[C@H](C)c1cccc2ccccc12 [Example 139, 2-Methyl-N-[(1R)-1-(1-naphthyl)ethyl]-5-(4-pyridyl)benzamide] | < 20
Cc1ccc(N2CCN(C(=O)OC(C)(C)C)CC2)cc1C(=O)N[C@H](C)c1cccc2ccccc12 [Example 28, tert-Butyl 4-[4-methyl-3-[(1R)-1-(1-naphthyl)ethyl]carbamoyl]phenyl]piperazine-1-carboxylate] | < 100
COc1ccc([C@@H](C)NC(=O)c2cc(N3CC4(CNC4)C3)ccc2C)cc1OC [Example 37, 5-(2,6-Diazaspiro[3.3]heptan-2-yl)-N-[(1R)-1-(3,4-dimethoxyphenyl)ethyl]-2-methyl-benzamide] | < 20
Cc1ccc(-c2ccnc(N3CCN(CCC(=O)O)CC3)c2)cc1C(=O)N[C@H](C)c1cccc2ccccc12 [Example 169, 3-[4-[4-[4-Methyl-3-[[(1R)-1-(1-naphthyl)ethyl]carbamoyl]phenyl]-2-pyridyl]piperazin-1-yl]propanoic acid] | < 20
C[C@@H](NC(=O)c1cccc(-c2ccnc(N3CCN(C)CC3)n2)c1)c1cccc2ccccc12 [Example 137, 3-[2-(4-Methylpiperazin-1-yl)pyrimidin-4-yl]-N-[(1R)-1-(1-naphthyl)ethyl]benzamide] | > 100
Cc1ccc(N2CCN(C)CC2)cc1C(=O)N[C@H](C)c1cc(Cl)cc(-c2cnn(C)c2)c1 [Example 257, N-[(1R)-1-[3-Chloro-5-(1-methylpyrazol-4-yl)phenyl]ethyl]-2-methyl-5-(4-methylpiperazin-1-yl)benzamide] | < 2

Structure (SMILES) | IC50 [µM]
Cc1ccc(-c2cccc(CCN3CCOCC3)c2)cc1C(=O)N[C@H](C)c1cccc2ccccc12 [Example 141, 2-Methyl-5-[3-(2-morpholinoethyl)phenyl]-N-[(1R)-1-(1-naphthyl)ethyl]benzamide] | > 100
C[C@@H](NC(=O)c1cc(C2CCNC2)cn1C)c1cccc2ccccc12 (stereo partly drawn) [Example 150, 1-Methyl-N-[(1R)-1-(1-naphthyl)ethyl]-4-pyrrolidin-3-yl-pyrrole-2-carboxamide] | < 100
Cc1ccc(N2CCN(C)CC2)cc1C(=O)N[C@H](C)c1cc(OC(F)F)cc(-c2cnn(C)c2)c1 [Example 283, N-[(1R)-1-[3-(Difluoromethoxy)-5-(1-methylpyrazol-4-yl)phenyl]ethyl]-2-methyl-5-(4-methylpiperazin-1-yl)benzamide] | < 2
Cc1ccc(N2CCN(C)CC2)cc1C(=O)N[C@H](C)c1cncc(Br)c1 [Example 193, N-[(1R)-1-(5-Bromo-3-pyridyl)ethyl]-2-methyl-5-(4-methylpiperazin-1-yl)benzamide] | < 100
Cc1ccc(-c2cccnc2)cc1C(=O)N[C@H](C)c1cccc2ccccc12 [Example 143, 2-Methyl-N-[(1R)-1-(1-naphthyl)ethyl]-5-(3-pyridyl)benzamide] | < 20
CC(=O)N1CCC(c2cccc(C(=O)N[C@H](C)c3cccc4ccccc34)c2)CC1 [Example 7, 3-(1-Acetyl-4-piperidyl)-N-[(1R)-1-(1-naphthyl)ethyl]benzamide] | > 100
Cc1ccc(N2CC[C@H](O)C2)cc1C(=O)N[C@H](C)c1cccc2ccccc12 [Example 119, 5-[(3S)-3-Hydroxypyrrolidin-1-yl]-2-methyl-N-[(1R)-1-(1-naphthyl)ethyl]benzamide] | < 100
Cc1ccc(-c2cccc(CCO)c2)cc1C(=O)N[C@H](C)c1cccc2ccccc12 [Example 142, 5-[3-(2-Hydroxyethyl)phenyl]-2-methyl-N-[(1R)-1-(1-naphthyl)ethyl]benzamide] | > 100
COc1cc(-c2cn(C)nc2C)cc([C@@H](C)NC(=O)c2cc(C3CCNCC3)ccc2C)c1 [Example 304, N-[(1R)-1-[3-(1,3-Dimethylpyrazol-4-yl)-5-methoxy-phenyl]ethyl]-2-methyl-5-(4-piperidyl)benzamide] | < 2
C[C@@H](NC(=O)c1cc(N2CCNC(C(F)(F)F)C2)ccc1Cl)c1cccc2ccccc12 (stereo partly drawn) [Example 132, 2-Chloro-N-[(1R)-1-(1-naphthyl)ethyl]-5-[3-(trifluoromethyl)piperazin-1-yl]benzamide] | < 100
Cc1ccc(N2CCN(C)CC2)cc1C(=O)N[C@H](C)c1cccc(C(=O)N2CCN(C)CC2)c1 [Example 307, 2-Methyl-N-[(1R)-1-[3-(4-methylpiperazine-1-carbonyl)phenyl]ethyl]-5-(4-methylpiperazin-1-yl)benzamide] | < 2
Cc1ccc(N2CCN(CC(=O)O)CC2)cc1C(=O)N[C@H](C)c1cccc2ccccc12 [Example 171, 2-[4-[4-Methyl-3-[[(1R)-1-(1-naphthyl)ethyl]carbamoyl]phenyl]piperazin-1-yl]acetic Acid] | < 2
C[C@@H](NC(=O)c1cccc(C2CCN(CCS(=O)(=O)c3ccccc3)CC2)c1)c1cccc2ccccc12 [Example 175, 3-[1-[2-(Benzenesulfonyl)ethyl]-4-piperidyl]-N-[(1R)-1-(1-naphthyl)ethyl]benzamide] | > 100
COc1c(Br)cccc1[C@@H](C)NC(=O)c1cc(N2CCN(C)CC2)ccc1C [Example 194, N-[(1R)-1-(3-Bromo-2-methoxy-phenyl)ethyl]-2-methyl-5-(4-methylpiperazin-1-yl)benzamide] | < 100
Cc1cnc(N2CCN(C)CC2)nc1C(=O)N[C@H](C)c1cccc2ccccc12 [Example 8, 5-Methyl-2-(4-methylpiperazin-1-yl)-N-[(1R)-1-(naphthalen-1-yl)ethyl]pyrimidine-4-carboxamide Hydrochloride Salt] | < 100
Cc1ccc(-c2ccccc2)cc1C(=O)N[C@H](C)c1cccc2ccccc12 [Example 5, 2-Methyl-N-[(1R)-1-(1-naphthyl)ethyl]-5-phenyl-benzamide] | > 100
Cc1ccc(N2CCN(C)CC2)cc1C(=O)N[C@H](C)c1cccc(S(C)(=O)=O)c1 [Example 38, 2-Methyl-5-(4-methylpiperazin-1-yl)-N-[(1R)-1-(3-methylsulfonylphenyl)ethyl] benzamide] | < 20
C[C@@H](NC(=O)c1cncc(N2CCN(C)CC2)n1)c1cccc2ccccc12 [Example 320, 6-(4-Methylpiperazin-1-yl)-N-[(1R)-1-(1-naphthyl)ethyl]pyrazine-2-carboxamide Hydrochloride Salt] | < 100
Cc1ccc(-c2cn[nH]c2)cc1C(=O)N[C@H](C)c1cccc2ccccc12 [Example 153, 2-Methyl-N-[(1R)-1-(1-naphthyl)ethyl]-5-(1H-pyrazol-4-yl)benzamide] | < 20
